Patent publication US20240228458A1, “PYRIMIDINE DERIVATIVE HAVING PROTEIN KINASE INHIBITORY ACTIVITY, AND THERAPEUTIC PHARMACEUTICAL COMPOSITION COMPRISING SAME” (THERAPEX CO., LTD., priority 2021, published 2024)

Key:
Assay type in all cases: cell-based
[1] = tested on: Ba/F3 cells expressing L858R/T790M/C797S (EGFR-LTC); experiment: Growth inhibition (GI50) of Ba/F3 cells expressing L858R/T790M/C797S (EGFR-LTC), Celltiter glo; conditions: Mus musculus, BaF3, 72 h
In short: (§1)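 Antiproliferative activity was assessed in EGFR-mutant or wild-type Ba/F3 cells over 72 h at 37 °C with 5% CO2. Cell viability was determined by CellTiter-Glo, and GI50 taken as the compound concentration inhibiting growth by 50%.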

[2] = tested on: Ba/F3 cells expressing EGFR-wt; experiment: Growth inhibition (GI50) of Ba/F3 cells expressing EGFR-wt, Celltiter glo; conditions: Mus musculus, BaF3, 72 h
In short: as §1

[3] = tested on: Ba/F3 cells expressing del19/T790M (EGFR-DT); experiment: Growth inhibition (GI50) of Ba/F3 cells expressing del19/T790M (EGFR-DT), Celltiter glo; conditions: Mus musculus, BaF3, 72 h
In short: as §1

[4] = tested on: Ba/F3 cells expressing L858R/T790M (EGFR-LT); experiment: Growth inhibition (GI50) of Ba/F3 cells expressing L858R/T790M (EGFR-LT), Celltiter glo; conditions: Mus musculus, BaF3, 72 h
In short: as §1

parental Ba/F3 cell line = experiment: Growth inhibition (GI50) of the parental Ba/F3 cell line (not introduced with EGFR variants), Celltiter glo; conditions: Mus musculus, BaF3, 72 h, parental Ba/F3 cells
In short: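 Parental Ba/F3 cells (100,000 cells/ml) were treated with 10-point, 4-fold compound dilutions (0.5% DMSO; top stock 2 mM) for 72 h at 37 °C, 5% CO2. Viability was read by CellTiter-Glo; GI50 is the concentration (μM) giving 50% growth inhibition.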

[5] = tested on: Ba/F3 cells expressing del19/T790M/C797S (EGFR-DTC); experiment: Growth inhibition (GI50) of Ba/F3 cells expressing del19/T790M/C797S (EGFR-DTC), Celltiter glo; conditions: Mus musculus, BaF3, 72 h
In short: as §1

Structure (SMILES) | GI50 [1] [nM] | GI50 [2] [nM] | GI50 [3] [nM] | GI50 [4] [nM] | GI50 (parental Ba/F3 cell line) [nM] | GI50 [5] [nM]
COc1cc(N2CCC(N3CCN(C)CC3)CC2)c(Cl)cc1Nc1ncc(Cl)c(Nc2cc3c(cc2NS(C)(=O)=O)CCO3)n1 [Example 168, N-(6-((5-chloro-2-((5-chloro-2-methoxy-4-(4-(4-methylpiperazin-1-yl)piperidin-1-yl)phenyl)amino)pyrimidin-4-yl)amino)-2,3-dihydrobenzofuran-5-yl)methanesulfonamide] | 1 to 25 | 25 to 100 | 1 to 25 | 1 to 25 | 2000 to 10000 | 1 to 25
COc1cc(N2CCC(N3CCN(C)CC3)CC2)c(C)cc1Nc1ncc(Br)c(Nc2cc3c(cc2NS(C)(=O)=O)CCO3)n1 [Example 169, N-(6-((5-bromo-2-((2-methoxy-5-methyl-4-(4-(4-methylpiperazin-1-yl)piperidin-1-yl)phenyl)amino)pyrimidin-4-yl)amino)-2,3-dihydrobenzofuran-5-yl)methanesulfonamide] | 1 to 25 | 100 to 500 | 1 to 25 | 1 to 25 | 500 to 2000 | 1 to 25
COc1cc(N2CCC(N3CCN(C)CC3)CC2)c(Cl)cc1Nc1ncc(Cl)c(Nc2cc(Cl)ccc2N(C)S(C)(=O)=O)n1 [Example 170, N-(4-chloro-2-((5-chloro-2-((5-chloro-2-methoxy-4-(4-(4-methylpiperazin-1-yl)piperidin-1-yl)phenyl)amino)pyrimidin-4-yl)amino)phenyl)-N-methylmethanesulfonamide] | 1 to 25 | 25 to 100 | 1 to 25 | 1 to 25 | 100 to 500 | 1 to 25
Cc1cc(Nc2ncc(Cl)c(Nc3cc4c(cc3NS(C)(=O)=O)CCO4)n2)c(Cl)cc1N1CCC(N2CCCN(C)CC2)CC1 [Example 172, N-(6-((5-chloro-2-((2-chloro-5-methyl-4-(4-(4-methyl-1,4-diazepan-1-yl)piperidin-1-yl)phenyl)amino)pyrimidin-4-yl)amino)-2,3-dihydrobenzofuran-5-yl)methanesulfonamide] | 1 to 25 | 100 to 500 | 25 to 100 | 1 to 25 | 100 to 500 | 1 to 25
Cc1cc(Nc2ncc(Cl)c(Nc3cc4c(cc3NS(C)(=O)=O)CCO4)n2)c(Cl)cc1N1CCC(N2CCN(C)CC2)CC1 [Example 173, N-(6-((5-chloro-2-((2-chloro-5-methyl-4-(4-(4-methylpiperazin-1-yl)piperidin-1-yl)phenyl)amino)pyrimidin-4-yl)amino)-2,3-dihydrobenzofuran-5-yl)methanesulfonamide] | 25 to 100 | 100 to 500 | 1 to 25 | 1 to 25 | 100 to 500 | 25 to 100
COc1cc(N2CCC(N3CCCN(C)CC3)CC2)c(Cl)cc1Nc1ncc(Cl)c(Nc2cc3c(cc2NS(C)(=O)=O)CCO3)n1 [Example 174, N-(6-((5-chloro-2-((5-chloro-2-methoxy-4-(4-(4-methyl-1,4-diazepan-1-yl)piperidin-1-yl)phenyl)amino)pyrimidin-4-yl)amino)-2,3-dihydrobenzofuran-5-yl)methanesulfonamide] | 25 to 100 | 100 to 500 | 1 to 25 | 1 to 25 | 500 to 2000 | 1 to 25
Cc1cc(Nc2ncc(Br)c(Nc3cc4c(cc3NS(C)(=O)=O)CCO4)n2)c(Cl)cc1N1CCC(N2CCN(C)CC2)CC1 [Example 175, N-(6-((5-bromo-2-((2-chloro-5-methyl-4-(4-(4-methylpiperazin-1-yl)piperidin-1-yl)phenyl)amino)pyrimidin-4-yl)amino)-2,3-dihydrobenzofuran-5-yl)methanesulfonamide] | 25 to 100 | 500 to 2000 | 100 to 500 | 100 to 500 | > 10000 | 25 to 100
COc1cc(N2CCC(N3CCN(C)CC3)CC2)c(C)cc1Nc1ncc(Cl)c(Nc2cc(Cl)c(F)cc2NS(C)(=O)=O)n1 [Example 176, N-(4-chloro-2-((5-chloro-2-((2-methoxy-5-methyl-4-(4-(4-methylpiperazin-1-yl)piperidin-1-yl)phenyl)amino)pyrimidin-4-yl)amino)-5-fluorophenyl)methanesulfonamide] | 1 to 25 | 100 to 500 | 25 to 100 | 25 to 100 | 500 to 2000 | 1 to 25
Cc1cc(Nc2ncc(Br)c(Nc3cc(Cl)c(F)cc3NS(C)(=O)=O)n2)c(Cl)cc1N1CCC(N2CCN(C)CC2)CC1 [Example 177, N-(2-((5-bromo-2-((2-chloro-5-methyl-4-(4-(4-methylpiperazin-1-yl)piperidin-1-yl)phenyl)amino)pyrimidin-4-yl)amino)-4-chloro-5-fluorophenyl)methanesulfonamide] | 1 to 25 | 2000 to 10000 | 100 to 500 | 100 to 500 | 2000 to 10000 | 25 to 100
COc1cc(N2CCC(N3CCN(C)CC3)CC2)c(Cl)cc1Nc1ncc(Br)c(Nc2cc(Cl)c(F)cc2NS(C)(=O)=O)n1 [Example 178, N-(2-((5-bromo-2-((5-chloro-2-methoxy-4-(4-(4-methylpiperazin-1-yl)piperidin-1-yl)phenyl)amino)pyrimidin-4-yl)amino)-4-chloro-5-fluorophenyl)methanesulfonamide] | 25 to 100 | 500 to 2000 | 25 to 100 | 25 to 100 | 2000 to 10000 | 1 to 25
Cc1cc(Nc2ncc(Cl)c(Nc3cc(Cl)ccc3N(C)S(C)(=O)=O)n2)c(Cl)cc1N1CCC(N2CCC(N(C)C)C2)CC1 (stereo not drawn) [Example 179, N-(4-chloro-2-((5-chloro-2-((2-chloro-4-(4-(3-(dimethylamino)pyrrolidin-1-yl)piperidin-1-yl)-5-methylphenyl)amino)pyrimidin-4-yl)amino)phenyl)-N-methylmethanesulfonamide] | 25 to 100 | 100 to 500 | 100 to 500 | 25 to 100 | 500 to 2000 | 100 to 500
Cc1cc(Nc2ncc(Cl)c(Nc3cc(Cl)ccc3N(C)S(C)(=O)=O)n2)c(Cl)cc1N1CCC(N2CCCN(C)CC2)CC1 [Example 180, N-(4-chloro-2-((5-chloro-2-((2-chloro-5-methyl-4-(4-(4-methyl-1,4-diazepan-1-yl)piperidin-1-yl)phenyl)amino)pyrimidin-4-yl)amino)phenyl)-N-methylmethanesulfonamide] | 25 to 100 | 500 to 2000 | 25 to 100 | 25 to 100 | 2000 to 10000 | 25 to 100
COc1cc(N2CCC(N3CCN(C)CC3)CC2)c(Cl)cc1Nc1ncc(Cl)c(Nc2cc(Cl)c(F)cc2NS(C)(=O)=O)n1 [Example 181, N-(4-chloro-2-((5-chloro-2-((5-chloro-2-methoxy-4-(4-(4-methylpiperazin-1-yl)piperidin-1-yl)phenyl)amino)pyrimidin-4-yl)amino)-5-fluorophenyl)methanesulfonamide] | 25 to 100 | 500 to 2000 | 25 to 100 | 25 to 100 | 2000 to 10000 | 100 to 500
Cc1cc(Nc2ncc(Cl)c(Nc3cc(Cl)c(F)cc3NS(C)(=O)=O)n2)c(Cl)cc1N1CCC(N2CCN(C)CC2)CC1 [Example 182, N-(4-chloro-2-((5-chloro-2-((2-chloro-5-methyl-4-(4-(4-methylpiperazin-1-yl)piperidin-1-yl)phenyl)amino)pyrimidin-4-yl)amino)-5-fluorophenyl)methanesulfonamide] | 25 to 100 | 2000 to 10000 | 25 to 100 | 25 to 100 | > 10000 | 25 to 100
COc1cc(N2CCC(N3CCN(C)CC3)CC2)c(Cl)cc1Nc1ncc(Br)c(Nc2cc3c(cc2NS(C)(=O)=O)CCO3)n1 [Example 183, N-(6-((5-bromo-2-((5-chloro-2-methoxy-4-(4-(4-methylpiperazin-1-yl)piperidin-1-yl)phenyl)amino)pyrimidin-4-yl)amino)-2,3-dihydrobenzofuran-5-yl)methanesulfonamide] | 1 to 25 | 1 to 25 | 1 to 25 | 1 to 25 | 25 to 100 | 1 to 25
CCc1cc(Nc2ncc(Br)c(Nc3cc4c(cc3NS(C)(=O)=O)CCO4)n2)c(OC)cc1N1CCC(N2CCN(C)CC2)CC1 [Example 184, N-(6-((5-bromo-2-((5-ethyl-2-methoxy-4-(4-(4-methylpiperazin-1-yl)piperidin-1-yl)phenyl)amino)pyrimidin-4-yl)amino)-2,3-dihydrobenzofuran-5-yl)methanesulfonamide] | 1 to 25 | 25 to 100 | 1 to 25 | 1 to 25 | 500 to 2000 | 100 to 500
COc1cc(N2CCC(N3CCCN(C)CC3)CC2)c(C)cc1Nc1ncc(Br)c(Nc2cc3c(cc2NS(C)(=O)=O)CCO3)n1 [Example 188, N-(6-((5-bromo-2-((2-methoxy-5-methyl-4-(4-(4-methyl-1,4-diazepan-1-yl)piperidin-1-yl)phenyl)amino)pyrimidin-4-yl)amino)-2,3-dihydrobenzofuran-5-yl)methanesulfonamide] | 1 to 25 | 100 to 500 | 25 to 100 | 25 to 100 | 500 to 2000 | 1 to 25
